Experimental data: US9611289B2, “Farnesoid X receptor modulators” (Intercept Pharmaceuticals, Inc., priority 2013, dated 2017)
≈ marks a conversion by molar mass, not a printed value. Where a name gives a salt, the structure may show the parent alone. Read-outs that look alike come from different tables or passages of the source. One block for each compound: values may come before it.

Key:
[1] = 1-octanol-water partition coefficient (LogPA-); details: ionized species
[2] = Critical micellar concentration; format: physicochemical; details: […] NaCl water solution
Surface tension at CMC = format: physicochemical; details: […] NaCl water solution
CYP2C19 = CYP2C19 (Homo sapiens, UniProt P33261); assay: biochemical
RARα = RARα (Homo sapiens, UniProt P10276); assay: AlphaScreen nuclear receptor activation; format: biochemical
PXR [3] = target: T1, PXR (Homo sapiens, UniProt O75469); assay: AlphaScreen nuclear receptor activation; format: biochemical
T1 sequence (O75469 1-434): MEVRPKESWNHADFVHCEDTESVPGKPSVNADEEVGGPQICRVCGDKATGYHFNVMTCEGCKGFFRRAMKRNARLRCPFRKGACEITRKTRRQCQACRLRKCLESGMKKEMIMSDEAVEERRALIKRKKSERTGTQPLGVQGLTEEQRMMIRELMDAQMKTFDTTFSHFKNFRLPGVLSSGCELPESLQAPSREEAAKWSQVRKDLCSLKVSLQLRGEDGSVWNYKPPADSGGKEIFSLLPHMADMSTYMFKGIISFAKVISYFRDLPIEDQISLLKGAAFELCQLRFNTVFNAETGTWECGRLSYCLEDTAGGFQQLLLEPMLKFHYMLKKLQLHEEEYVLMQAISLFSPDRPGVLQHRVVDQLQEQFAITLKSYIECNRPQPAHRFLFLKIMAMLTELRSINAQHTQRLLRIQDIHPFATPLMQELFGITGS

CYP2E1 = CYP2E1 (Homo sapiens, UniProt P05181); assay: biochemical
hERG potassium channel = hERG potassium channel (Homo sapiens, UniProt Q12809); assay: PREDICTOR hERG Fluorescence Polarization assay; details: CHO-hERG membrane preparations
HepG2 cells [4] = details: for living cells: LDH measure
CYP3A4 [5] = target: T2, CYP3A4 (Homo sapiens, UniProt P08684); assay: CYP450 inhibition, recombinant baculosomes, fluorescent signal; details: read-out: CYP3A4 (Green Substrate) IC50
CYP1A2 = target: T3, CYP1A2 (Homo sapiens, UniProt P05177); assay: biochemical
T3 sequence (P05177 1-516): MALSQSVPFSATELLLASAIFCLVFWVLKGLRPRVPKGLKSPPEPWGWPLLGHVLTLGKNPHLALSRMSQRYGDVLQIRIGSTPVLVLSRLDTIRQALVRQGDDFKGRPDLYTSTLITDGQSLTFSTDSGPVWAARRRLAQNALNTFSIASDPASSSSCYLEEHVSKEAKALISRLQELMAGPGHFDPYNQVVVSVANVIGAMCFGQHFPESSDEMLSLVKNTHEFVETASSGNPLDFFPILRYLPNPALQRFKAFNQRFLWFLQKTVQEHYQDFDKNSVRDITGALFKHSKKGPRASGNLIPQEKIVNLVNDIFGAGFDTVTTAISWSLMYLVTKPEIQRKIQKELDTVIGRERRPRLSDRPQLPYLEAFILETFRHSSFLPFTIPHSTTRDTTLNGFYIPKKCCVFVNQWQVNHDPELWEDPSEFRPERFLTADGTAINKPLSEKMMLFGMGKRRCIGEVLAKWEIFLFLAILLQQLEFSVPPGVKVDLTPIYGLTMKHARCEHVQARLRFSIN

CYP2D6 = CYP2D6 (Homo sapiens, UniProt P10635); assay: biochemical
CYP2C9 = CYP2C9 (Homo sapiens, UniProt P11712); assay: biochemical
CYP3A4 [6] = target: T2, CYP3A4; assay: biochemical
HepG2 cells [7] = assay: Cell viability by intracellular ATP in HepG2 cells; format: cell-based, human; details: 4 h, different concentrations, FIG. 6
FXR target genes = assay: Quantitative RT-PCR of FXR target genes in HepG2 cells; format: cell-based, human; details: 1 μM, overnight
CAR = CAR (Homo sapiens, UniProt Q14994); details: read-out: CAR Activation EC50; *inverse agonist; taken from Rizzo et al. 2010; cited from earlier work
PXR [8] = target: T1, PXR; details: taken from Rizzo et al. 2010; cited from earlier work
PR = PR (Homo sapiens, UniProt P06401); assay: AlphaScreen nuclear receptor activation; format: biochemical
HepG2 cells [9] = assay: cells; details: Homo sapiens, HepG2, read-out: Membrane integrity EC50 (μM) (LDH measure)

Compound: CC[C@H]1[C@@H](O)C2C3CCC(C(C)CC(C)C(=O)O)[C@@]3(C)[C@@H](O)CC2[C@@]2(C)CC[C@@H](O)C[C@@H]12 (stereo in doubt) [Compound C, 6α-ethyl-23(S)-methyl-3α,7α,12α trihydroxy-5β-cholan-24-oic acid]
LogPA−(d) 1-octanol-water partition coefficient [1]: 1.4 | CMC(b) (mM) Critical Micellar Concentration [2]: 2 mM | STCMC(c) (Dyne/cm) Surface Tension at CMC (Surface tension at CMC): 50.1 Dyne/cm

Compound: C[C@H](CCC(=O)O)[C@H]1CC[C@H]2[C@@H]3[C@H](O)C[C@@H]4C[C@H](O)CC[C@]4(C)[C@H]3CC[C@]12C [CDCA, chenodeoxycholic acid]
LogPA−(d) 1-octanol-water partition coefficient [1]: 2.2 | CMC(b) (mM) Critical Micellar Concentration [2]: 3.2 mM | STCMC(c) (Dyne/cm) Surface Tension at CMC (Surface tension at CMC): 45.5 Dyne/cm

Compound: CC[C@H]1[C@@H](O)[C@@H]2[C@H]([C@@H](O)C[C@]3(C)[C@@H]([C@H](C)CCC(=O)O)CC[C@@H]23)[C@@]2(C)CC[C@@H](O)C[C@@H]12 [Compound 100, 3α,7α,11β-trihydroxy-6α-ethyl-5β-cholan-24-oic acid]
solubility (Water solubility): 143 to 150 µM (≈ 62.4 to 65.5 µg/mL) | IC50 (CYP2C19): > 10 µM | RARα Activation EC50 (μM) (RARα): No activity | PXR Activation EC50 (μM) (PXR [3]): No activity | IC50 (CYP2E1): > 10 µM | block or inhibition of the hERG potassium channel (hERG potassium channel): does not block or inhibit | LogPA−(d) 1-octanol-water partition coefficient [1]: 0.8 | living cells (HepG2 cells [4]; HepG2 cells): (100% living cells) | cytotoxic effect on HepG2 cells (HepG2 cells [4]; LDH release): does not induce any cytotoxic effect | IC50 (CYP3A4 [5]): > 10 µM | IC50 (CYP1A2): > 10 µM | IC50 (CYP2D6): > 10 µM | IC50 (CYP2C9): > 10 µM | IC50 (CYP3A4 [6]): > 10 µM | viable cells (ATP measurement) (HepG2 cells [7]): 100%

Compound: CC[C@H]1[C@@H](O)C2C3CC[C@H]([C@H](C)CCC(=O)O)[C@@]3(C)C[C@@H](O)C2[C@@]2(C)CC[C@@H](O)C[C@@H]12 (stereo partly drawn) [Compound 101]
Membrane integrity EC50 (μM) (LDH measure) (HepG2 cells [4]; HepG2 cells): No toxicity | living cells (HepG2 cells [4]; HepG2 cells): (100% living cells)

Compound: CC[C@H]1[C@@H](O)[C@@H]2[C@H](CC[C@]3(C)[C@@H]([C@H](C)CCOS(=O)(=O)O)CC[C@@H]23)[C@@]2(C)CC[C@@H](O)C[C@@H]12 [Compound B, 6α-ethyl-3α,7α,23-trihydroxy-24-nor-5β-cholan-23-sulfate sodium salt]
IC50 (CYP2C19): > 10 µM | CYP7α1 gene expression (FXR target genes): down | IC50 (CYP2E1): > 10 µM | block or inhibition of the hERG potassium channel (hERG potassium channel): does not block or inhibit | LogPA−(d) 1-octanol-water partition coefficient [1]: 2.0 | IC50 (CYP3A4 [5]): > 10 µM | IC50 (CYP1A2): > 10 µM | IC50 (CYP2D6): > 10 µM | IC50 (CYP2C9): > 10 µM | IC50 (CYP3A4 [6]): > 10 µM | EC50 (CAR): 44 µM | PXR Activation EC50 (μM) (PXR [8]): No activity

Compound: CC[C@H]1[C@@H](O)C2C3CC[C@H]([C@H](C)C[C@H](C)C(=O)O)[C@@]3(C)CCC2[C@@]2(C)CC[C@@H](O)C[C@@H]12 (stereo partly drawn) [Compound D, 6α-ethyl-23(R)-methyl chenodeoxycholic acid]
solubility (Water solubility): 15 µM (≈ 6.52 µg/mL) | LogPA−(d) 1-octanol-water partition coefficient [1]: 2.9

Compound: CC[C@H]1[C@@H](O)C2C3C[C@H](O)[C@H]([C@H](C)CCC(=O)O)[C@@]3(C)CCC2[C@@]2(C)CC[C@@H](O)C[C@@H]12 (stereo partly drawn) [Compound E]
solubility (Water solubility): 120 µM (≈ 52.4 µg/mL) | LogPA−(d) 1-octanol-water partition coefficient [1]: 1.6 | CMC(b) (mM) Critical Micellar Concentration [2]: 5.9 mM | STCMC(c) (Dyne/cm) Surface Tension at CMC (Surface tension at CMC): 52.4 Dyne/cm

Continued, values first:

EC50 (PR): 0.05 µM
Compound: C[C@]12C[C@H](O)[C@H]3[C@@H](CCC4=CC(=O)CC[C@@]43C)[C@@H]1CC[C@@H]2C(=O)CO [Corticosterone]

EC50 (HepG2 cells [9]): 75 ± 5 µM
Compound: C[C@H](CCC(=O)O)[C@H]1CC[C@H]2[C@@H]3CC[C@@H]4C[C@H](O)CC[C@]4(C)[C@H]3CC[C@]12C [LCA, lithocholic acid]

LogPA−(d) 1-octanol-water partition coefficient [1]: 0.9 | CMC(b) (mM) Critical Micellar Concentration [2]: 3.0 mM
Compound: C[C@H](CCC(=O)NCCS(=O)(=O)O)[C@H]1CC[C@H]2[C@@H]3[C@H](O)C[C@@H]4C[C@H](O)CC[C@]4(C)[C@H]3CC[C@]12C [TCDCA, taurochenodeoxycholic acid]

LogPA−(d) 1-octanol-water partition coefficient [1]: 1.1 | CMC(b) (mM) Critical Micellar Concentration [2]: 2.2 mM
Compound: C[C@H](CCC(=O)NCCS(=O)(=O)O)[C@H]1CC[C@H]2[C@@H]3[C@@H](O)C[C@@H]4C[C@H](O)CC[C@]4(C)[C@H]3CC[C@]12C [TUDCA, tauroursodeoxycholic acid]

solubility (Water solubility): 7 to 7.5 µM (≈ 2.75 to 2.94 µg/mL) | LogPA−(d) 1-octanol-water partition coefficient [1]: 2.2 | CMC(b) (mM) Critical Micellar Concentration [2]: 6 to 10 mM | STCMC(c) (Dyne/cm) Surface Tension at CMC (Surface tension at CMC): 50.5 Dyne/cm
Compound: C[C@H](CCC(=O)O)[C@H]1CC[C@H]2[C@@H]3[C@@H](O)C[C@@H]4C[C@H](O)CC[C@]4(C)[C@H]3CC[C@]12C [UDCA, ursodeoxycholic acid]
